# Values quoted from earlier work as cited in patent publication US20080152640A1, “Means and Methods For Treating a Disease Which is Associated With an Excess Transport of Hyaluronan Across a Lipid Bilayer” (priority 2003, published 2008).
# Where two headings read alike, the source gives them in different places.
# Biological target: T1, MRP4 (Homo sapiens, UniProt O15439)
# T1 sequence (O15439 1-1325): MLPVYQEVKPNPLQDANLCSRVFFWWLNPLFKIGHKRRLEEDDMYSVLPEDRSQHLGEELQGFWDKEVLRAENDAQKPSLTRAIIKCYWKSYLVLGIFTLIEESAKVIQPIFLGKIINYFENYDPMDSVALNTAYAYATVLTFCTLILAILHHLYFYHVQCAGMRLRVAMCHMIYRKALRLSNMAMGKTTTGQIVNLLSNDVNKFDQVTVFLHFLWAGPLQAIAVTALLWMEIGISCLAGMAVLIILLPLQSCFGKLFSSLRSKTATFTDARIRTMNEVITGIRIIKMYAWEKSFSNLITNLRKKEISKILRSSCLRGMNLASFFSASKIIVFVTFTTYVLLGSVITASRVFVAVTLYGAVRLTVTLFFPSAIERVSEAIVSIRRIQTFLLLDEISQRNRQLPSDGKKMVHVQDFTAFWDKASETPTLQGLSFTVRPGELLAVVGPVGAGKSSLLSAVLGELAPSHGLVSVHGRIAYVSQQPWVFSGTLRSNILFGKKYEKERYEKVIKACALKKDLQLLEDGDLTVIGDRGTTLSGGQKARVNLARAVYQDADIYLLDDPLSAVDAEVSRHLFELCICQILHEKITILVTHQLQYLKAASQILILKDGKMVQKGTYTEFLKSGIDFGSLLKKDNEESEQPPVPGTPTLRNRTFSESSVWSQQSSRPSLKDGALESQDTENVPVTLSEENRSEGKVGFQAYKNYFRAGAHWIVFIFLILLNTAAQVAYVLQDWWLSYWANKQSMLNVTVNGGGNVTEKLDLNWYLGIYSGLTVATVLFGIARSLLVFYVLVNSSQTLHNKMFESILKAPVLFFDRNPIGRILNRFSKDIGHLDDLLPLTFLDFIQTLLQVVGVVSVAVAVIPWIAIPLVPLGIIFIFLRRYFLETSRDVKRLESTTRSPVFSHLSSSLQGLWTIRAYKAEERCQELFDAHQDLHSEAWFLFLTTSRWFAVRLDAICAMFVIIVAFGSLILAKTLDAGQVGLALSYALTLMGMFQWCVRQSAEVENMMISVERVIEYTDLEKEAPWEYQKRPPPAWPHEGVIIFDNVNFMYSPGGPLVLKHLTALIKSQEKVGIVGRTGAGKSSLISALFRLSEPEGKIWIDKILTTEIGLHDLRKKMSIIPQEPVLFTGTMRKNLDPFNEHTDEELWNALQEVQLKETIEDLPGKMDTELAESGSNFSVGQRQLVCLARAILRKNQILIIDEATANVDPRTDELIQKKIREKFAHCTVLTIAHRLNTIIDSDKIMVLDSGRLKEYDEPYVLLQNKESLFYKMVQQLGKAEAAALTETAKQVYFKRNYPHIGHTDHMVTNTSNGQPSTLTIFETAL
# Details: cited from earlier work
compound,measurement,setting,value
CCCN(CCC)S(=O)(=O)c1ccc(C(=O)O)cc1 [Probenecid],IC50,"read-out: IC50, 9-(2-phosphonomethoxyethyl)adenine (PMEA) transport by MRP4, substrate PMEA",2300 µM
same,IC50,"read-out: IC50, MRP4 mediated export of methotrexate, substrate methotrexate",~300 µM
same,IC50,"read-out: published inhibitory concentrations IC50 or Ki, MRP4",300 µM
